Data taken from patent US20210392895A1, “NOVEL OXADIAZOLES” (PI INDUSTRIES LIMITED, priority 2018, published 2021).

Tested on: Phakopsora pachyrhizi
Assay: Phakopsora pachyrhizi test in soybean (greenhouse, preventive activity, disease severity rating)
Assay type: in vivo
Conditions: preventive spray on soybean, compared to the untreated check
Protocol: To test the preventive activity of compounds, healthy young soybean plants, raised in the greenhouse, were sprayed with the active compound solution at the stated application rates inside spray cabinets using hallowcone nozzles. One day after treatment, the plants were inoculated with a suspension containing 2.1×10^6 Phakopsora pachyrhizi spores. The inoculated plants were then kept in the greenhouse chamber at 25° C. temperature and 90% relative humidity for disease expression. A visual assessment of the compound's performance was carried out by rating the disease severity (0-100% scale) on treated plants on 3, 7, 10 and 15 days after application. Efficacy (% control) of the compounds was calculated by comparing the disease rating in the treatment with the one of the untreated control. The treated plants were also assessed for plant compatibility by recording symptoms like necrosis, chlorosis and stunting.

With `O=C(c1ccccc1F)N1CC[C@H](Oc2ccc(-c3noc(C(F)(F)F)n3)cc2F)C1` [Compound 52, (S)-(3-(2-fluoro-4-(5-(trifluoromethyl)-1,2,4-oxadiazol-3-yl)phenoxy)pyrrolidin-1-yl)(2-fluorophenyl)methanone] as the compound, how does the pest or weed control at 500 ppm read?
Its pest or weed control at 500 ppm is > 70%.

Which pest or weed control at 500 ppm does the source give for `COc1ccc(C(=O)N2CC[C@H](Oc3ccc(-c4noc(C(F)(F)F)n4)cc3F)C2)cc1` [Compound 53, (S)-(3-(2-fluoro-4-(5-(trifluoromethyl)-1,2,4-oxadiazol-3-yl)phenoxy)pyrrolidin-1-yl)(4-methoxyphenyl)methanone] here?
Its pest or weed control at 500 ppm is > 70%.

Which pest or weed control at 500 ppm does the source give for `O=C(c1cccc(F)c1)N1CC[C@H](Oc2ccc(-c3noc(C(F)(F)F)n3)cc2F)C1` [Compound 54, (S)-(3-(2-fluoro-4-(5-(trifluoromethyl)-1,2,4-oxadiazol-3-yl)phenoxy)pyrrolidin-1-yl)(3-fluorophenyl)methanone] here?
The pest or weed control at 500 ppm was > 70%.

With `O=C(c1cncnc1)N1CC[C@H](Oc2ccc(-c3noc(C(F)(F)F)n3)cc2)C1` [Compound 57, (S)-pyrimidin-5-yl(3-(4-(5-(trifluoromethyl)-1,2,4-oxadiazol-3-yl)phenoxy)pyrrolidin-1-yl)methanone] as the compound, how does the pest or weed control at 500 ppm read?
The pest or weed control at 500 ppm was > 70%.

Which pest or weed control at 500 ppm does the source give for `CC(C)(C)OC(=O)N1CC[C@H](Oc2ccc(-c3noc(C(F)(F)F)n3)c(F)c2)C1` [Compound 62, tert-butyl (S)-3-(3-fluoro-4-(5-(trifluoromethyl)-1,2,4-oxadiazol-3-yl)phenoxy)pyrrolidine-1-carboxylate] here?
The pest or weed control at 500 ppm was > 70%.

Which pest or weed control at 500 ppm does the source give for `O=C(c1ccccc1F)N1CC[C@H](Oc2ccc(-c3noc(C(F)(F)F)n3)c(F)c2)C1` [Compound 63, (S)-(3-(3-fluoro-4-(5-(trifluoromethyl)-1,2,4-oxadiazol-3-yl)phenoxy)pyrrolidin-1-yl)(2-fluorophenyl)methanone] here?
The pest or weed control at 500 ppm was > 70%.

`O=C(c1cccc(F)c1)N1CC[C@H](Oc2ccc(-c3noc(C(F)(F)F)n3)c(F)c2)C1` [Compound 64, (S)-(3-(3-fluoro-4-(5-(trifluoromethyl)-1,2,4-oxadiazol-3-yl)phenoxy)pyrrolidin-1-yl)(3-fluorophenyl)methanone] was tested. Which pest or weed control at 500 ppm did it give?
The pest or weed control at 500 ppm was > 70%.

With `O=C(c1cccnc1)N1CC[C@H](Oc2ccc(-c3noc(C(F)(F)F)n3)c(F)c2)C1` [Compound 65, (S)-(3-(3-fluoro-4-(5-(trifluoromethyl)-1,2,4-oxadiazol-3-yl)phenoxy)pyrrolidin-1-yl)(pyridin-3-yl)methanone] as the compound, how does the pest or weed control at 500 ppm read?
Its pest or weed control at 500 ppm is > 70%.

With `O=S(=O)(c1ccccc1)N1CC[C@@H](Oc2ccc(-c3noc(C(F)(F)F)n3)cn2)C1` [Compound 71, (R)-3-(6-((1-(phenylsulfonyl)pyrrolidin-3-yl)oxy)pyridin-3-yl)-5-(trifluoromethyl)-1,2,4-oxadiazole] as the compound, how does the pest or weed control at 500 ppm read?
Its pest or weed control at 500 ppm is > 70%.

`O=C(c1ccccc1F)N1CC[C@@H](Oc2ccc(-c3noc(C(F)(F)F)n3)cn2)C1` [Compound 74, (R)-(2-fluorophenyl)(3-((5-(5-(trifluoromethyl)-1,2,4-oxadiazol-3-yl)pyridin-2-yl)oxy)pyrrolidin-1-yl)methanone] was tested. Which pest or weed control at 500 ppm did it give?
The pest or weed control at 500 ppm was > 70%.

How did the pest or weed control at 500 ppm turn out when `O=C(c1cccnc1)N1CC[C@@H](Oc2ccc(-c3noc(C(F)(F)F)n3)cn2)C1` [Compound 79, (R)-pyridin-3-yl(3-((5-(5-(trifluoromethyl)-1,2,4-oxadiazol-3-yl)pyridin-2-yl)oxy)pyrrolidin-1-yl)methanone] was run?
The pest or weed control at 500 ppm was > 70%.

`CN(c1ccc(-c2noc(C(F)(F)F)n2)cc1)C1CN(C(=O)OC(C)(C)C)C1` [Compound 80, tert-butyl 3-(methyl(4-(5-(trifluoromethyl)-1,2,4-oxadiazol-3-yl)phenyl)amino)azetidine-1-carboxylate] was tested. Which pest or weed control at 500 ppm did it give?
The pest or weed control at 500 ppm was > 70%.

With `O=C(c1ccccc1)N1CCC(Oc2ccc(-c3noc(C(F)(F)F)n3)cc2)CC1` [Compound 81, phenyl(4-(4-(5-(trifluoromethyl)-1,2,4-oxadiazol-3-yl)phenoxy)piperidin-1-yl)methanone] as the compound, how does the pest or weed control at 500 ppm read?
Its pest or weed control at 500 ppm is > 70%.

Which pest or weed control at 500 ppm does the source give for `CC(C)(C)OC(=O)N1CC(N(c2ccc(-c3noc(C(F)(F)F)n3)cc2)c2ccc(-c3noc(C(F)(F)F)n3)cc2)C1` [Compound 82, tert-butyl 3-(bis(4-(5-(trifluoromethyl)-1,2,4-oxadiazol-3-yl)phenyl)amino)azetidine-1-carboxylate] here?
Its pest or weed control at 500 ppm is > 70%.

With `CC(C)(C)OC(=O)N1CCC(Oc2ccc(-c3noc(C(F)(F)F)n3)cc2)CC1` [Compound 84, tert-butyl 4-(4-(5-(trifluoromethyl)-1,2,4-oxadiazol-3-yl)phenoxy)piperidine-1-carboxylate] as the compound, how does the pest or weed control at 500 ppm read?
Its pest or weed control at 500 ppm is > 70%.

How did the pest or weed control at 500 ppm turn out when `CN(c1ccc(-c2noc(C(F)(F)F)n2)cc1)C1CN(C(=O)c2cccc(Cl)c2)C1` [Compound 88, (3-chlorophenyl)(3-(methyl(4-(5-(trifluoromethyl)-1,2,4-oxadiazol-3-yl)phenyl)amino)azetidin-1-yl)methanone] was run?
The pest or weed control at 500 ppm was > 70%.

For `CN(c1ccc(-c2noc(C(F)(F)F)n2)cc1)C1CN(C(=O)c2ccc(C(F)(F)F)cc2)C1` [Compound 101, (3-(methyl(4-(5-(trifluoromethyl)-1,2,4-oxadiazol-3-yl)phenyl)amino)azetidin-1-yl)(4-(trifluoromethyl)phenyl)methanone], which pest or weed control at 500 ppm is on record?
Its pest or weed control at 500 ppm is > 70%.

How did the pest or weed control at 500 ppm turn out when `O=C(c1ccc(C(F)(F)F)cc1)N1CCC(Oc2ccc(-c3noc(C(F)(F)F)n3)cc2)CC1` [Compound 102, (4-(4-(5-(trifluoromethyl)-1,2,4-oxadiazol-3-yl)phenoxy)piperidin-1-yl)(4-(trifluoromethyl)phenyl)methanone] was run?
The pest or weed control at 500 ppm was > 70%.

For `O=S(=O)(c1ccccc1)N1CC[C@H](Oc2ccc(-c3noc(C(F)(F)F)n3)cn2)C1` [Compound 104, (S)-3-(6-((1-(phenylsulfonyl)pyrrolidin-3-yl)oxy)pyridin-3-yl)-5-(trifluoromethyl)-1,2,4-oxadiazole], which pest or weed control at 500 ppm is on record?
Its pest or weed control at 500 ppm is > 70%.

How did the pest or weed control at 500 ppm turn out when `COc1ccc(S(=O)(=O)N2CC[C@H](Oc3ccc(-c4noc(C(F)(F)F)n4)cn3)C2)cc1` [Compound 105, (S)-3-(6-((1-((4-methoxyphenyl)sulfonyl)pyrrolidin-3-yl)oxy)pyridin-3-yl)-5-(trifluoromethyl)-1,2,4-oxadiazole] was run?
Its pest or weed control at 500 ppm is > 70%.

Which pest or weed control at 500 ppm does the source give for `O=S(=O)(C1CC1)N1CC[C@H](Oc2ccc(-c3noc(C(F)(F)F)n3)cn2)C1` [Compound 106, (S)-3-(6-((1-(cyclopropylsulfonyl)pyrrolidin-3-yl)oxy)pyridin-3-yl)-5-(trifluoromethyl)-1,2,4-oxadiazole] here?
Its pest or weed control at 500 ppm is > 70%.

For `Cc1ccc(S(=O)(=O)N2CC[C@H](Oc3ccc(-c4noc(C(F)(F)F)n4)cn3)C2)cc1` [Compound 107, (S)-3-(6-((1-tosylpyrrolidin-3-yl)oxy)pyridin-3-yl)-5-(trifluoromethyl)-1,2,4-oxadiazole], which pest or weed control at 500 ppm is on record?
Its pest or weed control at 500 ppm is > 70%.

For `O=S(=O)(c1cccc(Cl)c1)N1CC[C@H](Oc2ccc(-c3noc(C(F)(F)F)n3)cn2)C1` [Compound 108, (S)-3-(6-((1-((3-chlorophenyl)sulfonyl)pyrrolidin-3-yl)oxy)pyridin-3-yl)-5-(trifluoromethyl)-1,2,4-oxadiazole], which pest or weed control at 500 ppm is on record?
The pest or weed control at 500 ppm was > 70%.

How did the pest or weed control at 500 ppm turn out when `O=S(=O)(c1ccc(C(F)(F)F)cc1)N1CC[C@H](Oc2ccc(-c3noc(C(F)(F)F)n3)cn2)C1` [Compound 109, (S)-5-(trifluoromethyl)-3-(6-((1-((4-(trifluoromethyl)phenyl)sulfonyl)pyrrolidin-3-yl)oxy)pyridin-3-yl)-1,2,4-oxadiazole] was run?
The pest or weed control at 500 ppm was > 70%.
